One test concerns the target c-Kit(V654A) (Homo sapiens, UniProt P10721, V654A). Kind of test: c-Kit(V654A) assay. Format: biochemical. The method, boiled down: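 Radiometric filter-binding read-out: after 3% phosphoric acid stop, peptide-incorporated 33P on filtermat scintillation-counted. Enzyme: human c-Kit V654A, residues 544–end, N-terminal GST fusion.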
Test [1] concerns the target mutant cKIT (560-576 and V654A) in GIST430/654 cell line (Homo sapiens (Human), UniProt P10721, DEL560-576/V654A). Kind of test: Cellular testing of cKIT mutant inhibitors: phospho-Y307-cKIT Luminex assay in GIST430/654 cells. Format: cell-based. The following applies: read-out: GIST 430/654 IC50. The method, boiled down:
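GIST430/654 cells carrying constitutively active cKIT (Δ560-576/V654A) were grown with 100 nM imatinib, then treated with serially diluted compound for 45 min. Lysates were captured on anti-total-cKIT Luminex beads overnight at 4 °C and probed for phospho-Y307-cKIT. IC50 was fitted from percent of 0.3% DMSO control.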

[2] abbreviates: Table 1, cKIT autophosphorylation, compounds 45 min.
The mark [3] stands for this setting: Table 2, corresponding triazole derivatives.

The structures appear in SMILES notation. Read-outs that look alike come from different tables or passages of the source.

Sequence of mutant cKIT (560-576 and V654A) in GIST430/654 cell line (P10721 other isoform, or with tags, fused parts or gaps V654A/del 1-25/del 560-576 limits assumed): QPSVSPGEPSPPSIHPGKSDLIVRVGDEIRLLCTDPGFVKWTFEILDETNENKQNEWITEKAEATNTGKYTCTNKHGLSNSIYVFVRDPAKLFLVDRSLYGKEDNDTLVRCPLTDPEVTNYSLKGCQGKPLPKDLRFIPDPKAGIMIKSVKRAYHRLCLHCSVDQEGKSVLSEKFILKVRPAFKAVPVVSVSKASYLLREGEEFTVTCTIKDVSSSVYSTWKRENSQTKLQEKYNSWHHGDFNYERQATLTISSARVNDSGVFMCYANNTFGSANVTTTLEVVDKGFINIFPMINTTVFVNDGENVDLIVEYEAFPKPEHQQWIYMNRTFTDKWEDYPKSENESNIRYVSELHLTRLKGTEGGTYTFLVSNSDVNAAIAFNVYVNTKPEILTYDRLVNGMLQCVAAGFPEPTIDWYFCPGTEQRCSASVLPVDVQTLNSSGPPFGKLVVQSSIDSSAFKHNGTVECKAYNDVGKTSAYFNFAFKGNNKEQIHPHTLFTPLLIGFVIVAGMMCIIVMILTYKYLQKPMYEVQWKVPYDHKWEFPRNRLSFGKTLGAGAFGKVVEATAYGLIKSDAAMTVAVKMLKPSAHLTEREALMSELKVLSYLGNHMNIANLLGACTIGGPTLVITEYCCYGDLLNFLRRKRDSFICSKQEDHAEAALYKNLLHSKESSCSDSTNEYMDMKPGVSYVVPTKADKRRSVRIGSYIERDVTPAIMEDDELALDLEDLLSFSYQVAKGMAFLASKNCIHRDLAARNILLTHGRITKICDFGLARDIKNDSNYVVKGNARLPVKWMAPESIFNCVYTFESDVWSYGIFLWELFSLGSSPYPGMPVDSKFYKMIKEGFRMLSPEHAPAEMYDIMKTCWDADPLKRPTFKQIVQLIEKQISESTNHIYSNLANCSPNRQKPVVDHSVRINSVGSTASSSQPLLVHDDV

For the compound `COCCOc1cc2[nH]nc(-c3cc(-c4cnn(C)c4)no3)c2cc1F` [A137, 5-fluoro-6-(2-methoxy-ethoxy)-3-[3-(1-methyl-1H-pyrazol-4-yl)-isoxazol-5-yl]-1H-indazole], the IC50 at c-Kit(V654A) (Table 1, 200 μM ATP) worked out at 7.6 nM; in test [1] (setting [2]), 180 nM.

Take `CCOc1cc2[nH]nc(-c3cc(-c4ccc(C(=O)N5CCN(C6COC6)CC5)cc4)no3)c2cc1F` [A229, 6-ethoxy-5-fluoro-3-(3-{4-[4-(oxetan-3-yl)piperazine-1-carbonyl]phenyl}-1,2-oxazol-5-yl)-1H-indazole]: the IC50 was determined as 47 nM at c-Kit(V654A) (Table 1, 200 μM ATP) and 1100 nM in test [1] (setting [2]).

With `COCCOc1cc2[nH]nc(-c3cc(-c4ccc(C(=O)N5CC(N6CCOCC6=O)C5)cc4)no3)c2cc1F` [A204, 4-[1-(4-{5-[5-fluoro-6-(2-methoxyethoxy)-1H-indazol-3-yl]-1,2-oxazol-3-yl}benzoyl)azetidin-3-yl]morpholin-3-one], the IC50 was 0.88 nM on c-Kit(V654A) (Table 1, 200 μM ATP) and 61 nM in test [1] (setting [2]).

`COCCOc1cc2[nH]nc(-c3cc(-c4ccc(C(=O)N5CC(S(C)(=O)=O)C5)cc4)no3)c2cc1F` [A29, 5-fluoro-3-{3-[4-(3-methanesulfonylazetidine-1-carbonyl)phenyl]-1,2-oxazol-5-yl}-6-(2-methoxyethoxy)-1H-indazole]: the IC50 was 0.95 nM against c-Kit(V654A) (Table 1, 200 μM ATP) and 390 nM in test [1] (setting [2]).

Turning to `COCCOc1cc2[nH]nc(-c3cn(-c4ccc(C(=O)N5CC(F)C5)cc4)nn3)c2cc1F` [reference compound], the IC50 was 11 nM against c-Kit(V654A) (setting [3]) and 580 nM in test [1] (setting [3]).

For `COCCOc1cc2[nH]nc(-c3cn(-c4ccc(C(=O)N5CCOC[C@@H]5C)cc4)nn3)c2cc1F` [reference compound], the IC50 on c-Kit(V654A) (setting [3]) was found to be 6.9 nM; in test [1] (setting [3]) it was 230 nM.

On to `COCCOc1cc2[nH]nc(-c3cc(-c4ccc(C(=O)N5CC[C@@H](F)C5)cc4)no3)c2cc1F` [A27, 5-fluoro-3-(3-{4-[(3R)-3-fluoropyrrolidine-1-carbonyl]phenyl}-1,2-oxazol-5-yl)-6-(2-methoxyethoxy)-1H-indazole], for which the IC50 came out at 1.2 nM on c-Kit(V654A) (Table 1, 200 μM ATP) and 57 nM in test [1] (setting [2]).

As to `COCCOc1cc2[nH]nc(-c3cc(-c4ccc(S(C)(=O)=O)cc4)no3)c2cc1F` [A16, 5-fluoro-3-[3-(4-methanesulfonylphenyl)-1,2-oxazol-5-yl]-6-(2-methoxyethoxy)-1H-indazole], the IC50 worked out at 4.8 nM at c-Kit(V654A) (Table 1, 200 μM ATP) and 94 nM in test [1] (setting [2]).

Regarding `COCCOc1cc2[nH]nc(-c3cc(-c4ccc(C(=O)N5CC(c6ccnc(C)n6)C5)cc4)no3)c2cc1F` [A173, 5-fluoro-6-(2-methoxyethoxy)-3-(3-{4-[3-(2-methylpyrimidin-4-yl)azetidine-1-carbonyl]phenyl}-1,2-oxazol-5-yl)-1H-indazole], the IC50 against c-Kit(V654A) (Table 1, 200 μM ATP) amounted to 1.1 nM; in test [1] (setting [2]) it was 30 nM.

With `COCCOc1cc2[nH]nc(-c3cc(-c4nc(C(=O)N(C)C)cs4)no3)c2cc1F` [A93, 2-{5-[5-fluoro-6-(2-methoxyethoxy)-1H-indazol-3-yl]-1,2-oxazol-3-yl}-N,N-dimethyl-1,3-thiazole-4-carboxamide], the IC50 stood at 53 nM against c-Kit(V654A) (Table 1, 200 μM ATP) and 390 nM in test [1] (setting [2]).

Turning to `COCCOc1cc2[nH]nc(-c3cc(-c4ccc(C(=O)N5CC6(CCOC6)C5)cc4)no3)c2cc1F` [A77, 5-fluoro-6-(2-methoxyethoxy)-3-[3-(4-{6-oxa-2-azaspiro[3.4]octane-2-carbonyl}phenyl)-1,2-oxazol-5-yl]-1H-indazole], the IC50 on c-Kit(V654A) (Table 1, 200 μM ATP) was determined as 1 nM; in test [1] (setting [2]), 47 nM.

Consider `COCCOc1cc2[nH]nc(-c3cc(-c4ccc(C(=O)N5CCN(C6CCOCC6)CC5)cc4)no3)c2cc1F` [A188, 5-fluoro-6-(2-methoxyethoxy)-3-(3-{4-[4-(oxan-4-yl)piperazine-1-carbonyl]phenyl}-1,2-oxazol-5-yl)-1H-indazole], for which the IC50 on c-Kit(V654A) (Table 1, 200 μM ATP) worked out at 0.61 nM; in test [1] (setting [2]), 34 nM.

As to `COCCOc1cc2[nH]nc(-c3cc(-c4ccc(C(=O)N(C)C)cc4)no3)c2cc1F` [A20, 4-{5-[5-fluoro-6-(2-methoxyethoxy)-1H-indazol-3-yl]-1,2-oxazol-3-yl}-N,N-dimethylbenzamide], the IC50 stood at 1.7 nM on c-Kit(V654A) (Table 1, 200 μM ATP) and 48 nM in test [1] (setting [2]).

Take `COCCOc1ccc2c(-c3cc(-c4ccc(C(=O)N5CCC[C@@H]5C(C)(C)O)cc4)no3)n[nH]c2c1` [A2, 2-[(2R)-1-(4-{5-[6-(2-methoxyethoxy)-1H-indazol-3-yl]-1,2-oxazol-3-yl}benzoyl)pyrrolidin-2-yl]propan-2-ol]: the IC50 was 4.8 nM on c-Kit(V654A) (Table 1, 200 μM ATP) and 250 nM in test [1] (setting [2]).

In the case of `COCCOc1cc2[nH]nc(-c3cc(-c4ccc(C(=O)N5CCN(C)CC5)cc4)on3)c2cc1F` [A113, (4-{3-[5-fluoro-6-(2-methoxy-ethoxy)-1H-indazol-3-yl]-isoxazol-5-yl}-phenyl)-(4-methyl-piperazin-1-yl)-methanone], the IC50 against c-Kit(V654A) (Table 1, 200 μM ATP) worked out at 2.6 nM; in test [1] (setting [2]), 82 nM.

As to `COCCOc1cc2[nH]nc(-c3cn(-c4ccc(C(=O)N5CCC[C@H]5C(C)(C)O)cc4)nn3)c2cc1F` [reference compound], the values for the IC50 (on c-Kit(V654A) (setting [3]); in test [1] (setting [3])) were 2.5 nM and 79 nM, respectively.

`COCCOc1cc2[nH]nc(-c3cc(-c4ccc(C(=O)N5CC[C@H](F)C5)cc4)no3)c2cc1F` [A32, 5-fluoro-3-(3-{4-[(3S)-3-fluoropyrrolidine-1-carbonyl]phenyl}-1,2-oxazol-5-yl)-6-(2-methoxyethoxy)-1H-indazole]: the IC50 against c-Kit(V654A) (Table 1, 200 μM ATP) stood at 0.91 nM; in test [1] (setting [2]), 39 nM.

Turning to `COCCOc1cc2[nH]nc(-c3cn(-c4ccc(N5CCN(C)CC5)cc4)nn3)c2cc1F` [reference compound], the IC50 against c-Kit(V654A) (setting [3]) is 15 nM; in test [1] (setting [3]), 1000 nM.

For `COCCOc1cc2[nH]nc(-c3cn(-c4ccc(C(=O)N5CC[C@H]5C(C)(C)O)cc4)nn3)c2cc1F` [reference compound], the IC50 against c-Kit(V654A) (setting [3]) amounted to 7.5 nM; in test [1] (setting [3]), 240 nM.

For `COCCOc1cc2[nH]nc(-c3cc(-c4ccc(C(=O)N5CCC[C@H]5CO)cc4)no3)c2cc1F` [drawing 57, reference compound], the IC50 against c-Kit(V654A) (setting [3]) came to 8.5 nM; in test [1] (setting [3]), 910 nM.

`COCCOc1cc2[nH]nc(-c3cc(-c4ccc(C(=O)N5CC(O)(c6cccnc6)C5)cc4)no3)c2cc1F` [A221, 1-(4-{5-[5-fluoro-6-(2-methoxyethoxy)-1H-indazol-3-yl]-1,2-oxazol-3-yl}benzoyl)-3-(pyridin-3-yl)azetidin-3-ol]: the IC50 against c-Kit(V654A) (Table 1, 200 μM ATP) is 0.54 nM; in test [1] (setting [2]), 120 nM.

Regarding `COCCOc1cc2[nH]nc(-c3cc(-c4ccc(C(=O)N=S(C)(C)=O)cc4)no3)c2cc1F` [A35, N-[dimethyl(oxo)-lambda6-sulfanylidene]-4-{5-[5-fluoro-6-(2-methoxyethoxy)-1H-indazol-3-yl]-1,2-oxazol-3-yl}benzamide], the IC50 at c-Kit(V654A) (Table 1, 200 μM ATP) amounted to 6.3 nM; in test [1] (setting [2]), 170 nM.

As to `COCCOc1cc2[nH]nc(-c3cc(-c4ccc(C(=O)N5CCN(C6COC6)CC5)cc4)no3)c2cc1F` [A45, (4-{5-[5-fluoro-6-(2-methoxy-ethoxy)-1H-indazol-3-yl]-isoxazol-3-yl}-phenyl)-(4-oxetan-3-yl-piperazin-1-yl)-methanone], the IC50 was 1.2 nM on c-Kit(V654A) (Table 1, 200 μM ATP) and 59 nM in test [1] (setting [2]).

For the compound `COCCOc1cc2[nH]nc(-c3cc(-c4ccc(C(=O)N5CC6(CCN(C7COC7)CC6)C5)cc4)no3)c2cc1F` [A199, 2-(4-{5-[5-fluoro-6-(2-methoxyethoxy)-1H-indazol-3-yl]-1,2-oxazol-3-yl}benzoyl)-7-(oxetan-3-yl)-2,7-diazaspiro[3.5]nonane], the IC50 came to 0.76 nM against c-Kit(V654A) (Table 1, 200 μM ATP) and 28 nM in test [1] (setting [2]).

In the case of `COCCOc1cc2[nH]nc(-c3cn(-c4ccc(C(=O)N5C[C@H]6COC[C@H]6C5)cc4)nn3)c2cc1F` [reference compound], the IC50 against c-Kit(V654A) (setting [3]) came to 5 nM; in test [1] (setting [3]) it was 470 nM.

As for `COCCOc1cc2[nH]nc(-c3cc(-c4ccc(C(=O)N(C)C)cn4)no3)c2cc1F` [A91, 6-{5-[5-fluoro-6-(2-methoxyethoxy)-1H-indazol-3-yl]-1,2-oxazol-3-yl}-N,N-dimethylpyridine-3-carboxamide], the IC50 was 7.2 nM against c-Kit(V654A) (Table 1, 200 μM ATP) and 290 nM in test [1] (setting [2]).

Regarding `COCCOc1cc2[nH]nc(-c3cc(-c4ccc(C(=O)N5CCN(C(CO)CO)CC5)cc4)no3)c2cc1F` [A228, 2-[4-(4-{5-[5-fluoro-6-(2-methoxyethoxy)-1H-indazol-3-yl]-1,2-oxazol-3-yl}benzoyl)piperazin-1-yl]propane-1,3-diol], the IC50 against c-Kit(V654A) (Table 1, 200 μM ATP) worked out at 570 nM; in test [1] (setting [2]), 470 nM.

Turning to `COCCOc1cc2[nH]nc(-c3cc(-c4ccc(C(=O)N5CCC[C@@H]5CO)cc4)no3)c2cc1F` [A52, [(2R)-1-(4-{5-[5-fluoro-6-(2-methoxyethoxy)-1H-indazol-3-yl]-1,2-oxazol-3-yl}benzoyl)pyrrolidin-2-yl]methanol], the IC50 on c-Kit(V654A) (Table 1, 200 μM ATP) came out at 0.82 nM; in test [1] (setting [2]), 55 nM.

In the case of `COCCOc1cc2[nH]nc(-c3cc(-c4ccc(N5CC[C@@H]6[C@@H]5CCN6C)cc4)no3)c2cc1F` (relative stereo) [A126, 3-(3-{4-[(trans)-4-methyl-octahydropyrrolo[3,2-b]pyrrol-1-yl]phenyl}-1,2-oxazol-5-yl)-5-fluoro-6-(2-methoxyethoxy)-1H-indazole], the IC50 turned out to be 1.7 nM at c-Kit(V654A) (Table 1, 200 μM ATP) and 200 nM in test [1] (setting [2]).

Turning to `COCCOc1cc2[nH]nc(-c3cc(-c4ccc(C(=O)N5CC6CC(C5)O6)cc4)no3)c2cc1F` [A161, 5-fluoro-6-(2-methoxyethoxy)-3-[3-(4-{6-oxa-3-azabicyclo[3.1.1]heptane-3-carbonyl}phenyl)-1,2-oxazol-5-yl]-1H-indazole], the IC50 against c-Kit(V654A) (Table 1, 200 μM ATP) is 0.45 nM; in test [1] (setting [2]), 40 nM.

For the origin of these results see patent US20260042753A1 (Merck Patent GmbH, priority 2019, published 2026).
